Measured values from paper PMC6325219, “Preclinical Characterization of NVR 3-778, a First-in-Class Capsid Assembly Modulator against Hepatitis B Virus” (Antimicrobial Agents and Chemotherapy, 2018).
Read-outs that look alike come from different tables or passages of the source.

What was measured:
[1] = tested on: HepG2.2.15 cells; test: Cell viability of HepG2.2.15 cells (ATP levels, CellTiter-Glo); type: cell-based; settings: NVR 3-778 up to 4 μM and LMV up to 1.5 μM, alone or in combination, 6 days
Method: In combination studies, cells were treated with compounds either alone or in combination after combining the compounds in a checkerboard format. In studies examining the effect of human serum, serially diluted NVR 3-778 was added into cell culture medium containing 0% to 40% human serum (BioreclamationIVT). Cells were incubated with the compounds for 3 days, after which the medium was removed, fresh medium containing the compounds was added to the cells, and the cells were incubated for another 3 days prior to harvesting of the supernatants or cells for antiviral assays. To quantify intracellular encapsidated rcDNA or encapsidated pgRNA, cells were first solubilized using lysis buffer containing 1% NP-40 and 10 mM CaCl2. The cytoplasmic fraction was then treated with S7 nuclease (6 units) to remove nonencapsidated nucleic acids, after which the S7 nuclease was inactivated by the addition of EDTA (0.5 M). […] The levels of HBV DNA were determined by a bDNA assay as described above (Affymetrix). Supernatants or cell lysates containing HBV RNA were treated with proteinase K (2.5 µg) at 50°C for 40 min, transferred to a capture plate containing HBV RNA probe sets, and hybridized overnight at 55°C. Captured HBV RNA was measured by the addition of a chemiluminescent substrate using a QuantiGene assay (Affymetrix). […] At day 6, the CellTiter-Glo reagent was added to the cells and viability was determined according to the manufacturer’s protocol (Promega). Luminescence signals were measured at 0.2 s using a Victor X4 multimode plate reader (PerkinElmer).

[2] = tested on: HBV core protein variant I105V; test: Transient-transfection antiviral study in HepG2 cells, core variant I105V; type: cell-based, hepatitis B virus; settings: for EC50 FC, I105V: ratio of mean EC50 for core variant over wild-type HBV
Method: (§1) Cells were cotransfected with the HBV plasmids (100 ng/well) and a Gaussia expression plasmid (10 ng/well) (Thermo Scientific) using the Lipofectamine LTX Plus transfection reagent (Life Technologies). Transfection mixtures were removed after overnight incubation, and cells were treated with serially diluted NVR 3-778 at a final dimethyl sulfoxide (DMSO) concentration of 0.5%. After 3 days of incubation with the compound, the supernatants were collected and secreted Gaussia luciferase was measured using a Gaussia Flash luciferase assay kit (Thermo Scientific). […] Samples were diluted into lysis buffer (Affymetrix) containing 2.5 µg proteinase K (Affymetrix) at 50°C for 40 min. Intracellular encapsidated HBV DNA was denatured for 30 min at 25°C in 0.2 M NaOH (Sigma) and incubated with HBV DNA probes designed to hybridize to the minus-strand HBV DNA (Affymetrix). The denatured DNA was subsequently detected using a QuantiGene assay kit, according to the branched DNA (bDNA) assay recommended by the manufacturer (Affymetrix).

[3] = tested on: HBV core protein variant I105L; test: Transient-transfection antiviral study in HepG2 cells, core variant I105L; type: cell-based, hepatitis B virus; settings: for EC50 FC, I105L: ratio of mean EC50 for core variant over wild-type HBV
Method: as §1

[4] = tested on: HBV; test: De novo infection study using PHH; type: cell-based; settings: Hepatitis B virus
Method: Cryopreserved PHH (Life Technologies) were seeded at 40,000 cells/well 1 day before infection. The HBV inoculum, concentrated from the supernatants of HepG2.2.15 cells, was prepared at 200 genome equivalents/cell in PHH medium (DMEM containing 10% FBS and a supplement cocktail containing HEPES, L-proline, insulin epidermal growth factor, dexamethasone, and ascorbic acid-2-phosphate, as previously described) with 2% DMSO and 4% polyethylene glycol (PEG) 8000 (Sigma). Compounds were serially diluted in DMSO at 50-fold strength and added to PHH medium containing the HBV inoculum, prior to infecting the PHH. After overnight incubation, the infection mixtures were removed and the cells were replenished with PHH medium containing freshly diluted compounds. On day 5 and day 8 postinfection, the media containing the compounds were removed and the cells were replenished with PHH medium containing freshly diluted compounds. Supernatants and cells were harvested for antiviral and viability assays on day 11 postinfection. HBV DNA, HBsAg, and HBeAg were determined from the supernatants of infected PHH using bDNA assays (Affymetrix) and HBsAg or HBeAg chemiluminescence immunoassay kits (Autobio), as recommended by the manufacturers. Intracellular total HBV RNA mRNA and host mRNA levels were monitored by using the QuantiGene assays (Affymetrix) and probe sets that hybridized to the X region, which is common to all HBV transcripts, and the host β-actin mRNA, respectively.

[5] = tested on: HBV; test: Combination study of NVR 3-778 with nucleos(t)ide analogs in HepG2.2.15 cells (MacSynergy II, CalcuSyn); type: cell-based, hepatitis B virus (GT D)
Method: The effect of the compound combinations on cell viability was evaluated by measuring the intracellular ATP levels of HepG2.2.15 cells.
HepG2.2.15 cells were seeded in 96-well plates at a density of 40,000 cells/well and incubated with serially diluted compounds at a final DMSO concentration of 0.5%. In combination studies, cells were treated with compounds either alone or in combination after combining the compounds in a checkerboard format. In studies examining the effect of human serum, serially diluted NVR 3-778 was added into cell culture medium containing 0% to 40% human serum (BioreclamationIVT). Cells were incubated with the compounds for 3 days, after which the medium was removed, fresh medium containing the compounds was added to the cells, and the cells were incubated for another 3 days prior to harvesting of the supernatants or cells for antiviral assays. To quantify intracellular encapsidated rcDNA or encapsidated pgRNA, cells were first solubilized using lysis buffer containing 1% NP-40 and 10 mM CaCl2. The cytoplasmic fraction was then treated with S7 nuclease (6 units) to remove nonencapsidated nucleic acids, after which the S7 nuclease was inactivated by the addition of EDTA (0.5 M). To quantify extracellular HBV DNA or HBV RNA, supernatants from HepG2.2.15 cells were treated with Turbo DNase at 37°C for 60 min, followed by inactivation of DNase at 75°C for 15 min. The levels of HBV DNA were determined by a bDNA assay as described above (Affymetrix). Supernatants or cell lysates containing HBV RNA were treated with proteinase K (2.5 µg) at 50°C for 40 min, transferred to a capture plate containing HBV RNA probe sets, and hybridized overnight at 55°C. Captured HBV RNA was measured by the addition of a chemiluminescent substrate using a QuantiGene assay (Affymetrix). To determine the cytotoxicity effect of the compounds on proliferating cells, HepG2.2.15 cells were seeded in 96-well plates at a density of 10,000 cells/well and incubated with serially diluted compounds at a final DMSO concentration of 0.5% for 3 days, after which the medium was removed, fresh medium containing the compounds was added to the cells, and the cells were incubated for another 3 days. At day 6, the CellTiter-Glo reagent was added to the cells and viability was determined according to the manufacturer’s protocol (Promega). Luminescence signals were measured at 0.2 s using a Victor X4 multimode plate reader (PerkinElmer).
To determine percent inhibition, the mean background signal from wells containing only culture medium was subtracted from the signal for all other samples, and percent inhibition at each compound concentration was calculated by normalization to the signals for HepG2.2.15 cells treated with 0.5% DMSO. […] Both CalcuSyn and MacSynergy II (Ann Arbor, MI) software were used to evaluate the effect of compound combinations ([27]). After data analysis at the 95% confidence level, values of synergy or antagonism of <25 µM^2% were defined as insignificant, those between 25 and 50 µM^2% were defined as minor, those between 50 and 100 µM^2% were defined as moderate, and those of >100 µM^2% were defined as strong.

[6] = 264 h, PHH from three donors, compound added with inoculum, 11 days, read-out: EC50, HBV DNA
[7] = 264 h, PHH from three donors, compound added with inoculum, 11 days, read-out: EC50, HBeAg
[8] = 264 h, PHH from three donors, compound added with inoculum, 11 days, read-out: EC50, HBsAg
[9] = 264 h, PHH from three donors, compound added with inoculum, 11 days, read-out: EC50, intracellular HBV RNA
[10] = 264 h, PHH from three donors, compound added with inoculum, 11 days, read-out: EC90, HBV DNA
[11] = 264 h, PHH from three donors, compound added with inoculum, 11 days, read-out: EC90, HBeAg
[12] = 264 h, PHH from three donors, compound added with inoculum, 11 days, read-out: EC90, HBsAg
[13] = 264 h, PHH from three donors, compound added with inoculum, 11 days, read-out: EC90, intracellular HBV RNA
[14] = in combination with NVR 3-778, HepG2.2.15 cells, 6 days, MacSynergy II, 95% confidence
[15] = HepG2.2.15 cells, 6 days, LMV 0.15-1.5 μM

Structure (SMILES) | Effect on cell viability [1] | EC50 FC, I105V [2] | EC50 FC, I105L [3] | EC50 [4, 6] | EC50 [4, 7] | EC50 [4, 8] | EC50 [4, 9] | EC90 [4, 10] | EC90 [4, 11] | EC90 [4, 12] | EC90 [4, 13] | Antagonism [5, 14] | Synergy [5, 14] | CalcuSyn-predicted effect ([5]; in combination with NVR 3-778, based on overall CI) | EC50 ([2]; Hepatitis B virus, HepG2, read-out: EC50, core variant I105V) | EC50 ([3]; Hepatitis B virus, HepG2, read-out: EC50, core variant I105L) | EC50 ([4]; PHH, de novo infection, range over HBsAg, HBeAg, HBV RNA, read-out: EC50 values against the production of HBV antigens and intracellular HBV RNA) | Effect of adding 0.4 μM NVR 3-778 to LMV on secreted HBV RNA [5, 15] | Effect of adding 2 μM and 4 μM NVR 3-778 to LMV on secreted HBV RNA [5, 15]
Nc1ccn([C@@H]2CS[C@H](CO)O2)c(=O)n1 [LMV, lamivudine, reference compound] | did not affect cell viability | 0.84 fold | 1.3 fold | 0.016 ± 0.01 µM | > 30 µM | > 30 µM | > 30 µM | 0.066 ± 0.01 µM | > 30 µM | > 30 µM | > 30 µM | −14.3 μM^2% | 5.1 μM^2% | Additive | – | – | – | – | –
O=C(Nc1cc(F)c(F)c(F)c1)c1ccc(F)c(S(=O)(=O)N2CCC(O)CC2)c1 [NVR 3-778] | did not affect cell viability | 1.8 fold | 1.5 fold | 0.81 ± 0.18 µM | 4.5 ± 0.82 µM | 4.8 ± 0.98 µM | 3.7 ± 0.22 µM | 5.4 ± 2 µM | 8.9 ± 1.2 µM | 10.2 ± 3 µM | 11.6 ± 2.7 µM | – | – | – | 0.41 ± 0.11 µM | 0.34 ± 0.13 µM | 3.7 to 4.8 µM | partially reversed the increase in the level of secreted HBV RNA induced by LMV | completely reverted the LMV effect
